Measurements from patent US9238619B2, “Phenalkylamine derivatives, pharmaceutical compositions containing them, and their use in therapy” (AbbVie Deutschland GmbH & Co. KG, priority 2010, dated 2016).

Target: human GlyT1c transporter (Homo sapiens (Human), UniProt P48067)
Assay: Radioligand binding assays using recombinant CHO cell membranes expressing human GlyT1
Details: read-out: radioligand binding Kiapp
Method: Radioligand binding to human GlyT1c transporter-expressing membranes was determined as described in Mezler et al., Molecular Pharmacology 74:1705-1715, 2008.

Chain of human GlyT1c transporter (P48067 whole entry): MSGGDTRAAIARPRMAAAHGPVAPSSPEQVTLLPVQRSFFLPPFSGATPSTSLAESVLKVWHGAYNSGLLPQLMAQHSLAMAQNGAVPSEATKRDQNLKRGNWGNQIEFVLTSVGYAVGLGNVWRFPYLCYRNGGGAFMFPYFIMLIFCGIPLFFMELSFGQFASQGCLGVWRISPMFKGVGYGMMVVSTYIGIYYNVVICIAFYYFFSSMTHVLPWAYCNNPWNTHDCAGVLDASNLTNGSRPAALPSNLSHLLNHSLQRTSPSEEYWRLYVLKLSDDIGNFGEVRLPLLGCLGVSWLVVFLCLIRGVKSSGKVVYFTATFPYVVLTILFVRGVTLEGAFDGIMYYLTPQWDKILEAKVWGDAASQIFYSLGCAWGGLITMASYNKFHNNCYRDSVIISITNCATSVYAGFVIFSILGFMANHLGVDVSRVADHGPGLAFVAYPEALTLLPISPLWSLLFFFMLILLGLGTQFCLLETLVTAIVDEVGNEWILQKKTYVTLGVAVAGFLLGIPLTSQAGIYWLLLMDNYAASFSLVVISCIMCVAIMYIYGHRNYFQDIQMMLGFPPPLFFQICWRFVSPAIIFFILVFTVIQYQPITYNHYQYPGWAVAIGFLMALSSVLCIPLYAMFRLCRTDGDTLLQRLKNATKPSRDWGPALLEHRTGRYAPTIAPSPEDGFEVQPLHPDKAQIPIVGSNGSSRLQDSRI

Ki [nM] | SMILES
≤ 1000 | Cn1cc(S(=O)(=O)NCCOc2cccc(C(Cc3ccccc3)CN3CCCC3)c2)cn1 (centres unmarked) [Example 34, 1-Methyl-1H-pyrazole-4-sulfonic acid {2-[3-(1-benzyl-2-pyrrolidin-1-yl-ethyl)phenoxy]-ethyl}-amide]
≤ 100 | CN(C)CC(Cc1ccccc1)c1ccc(F)c(OCCNS(=O)(=O)c2cnn(C)c2)c1 (centres unmarked) [Example 31, 1-Methyl-1H-pyrazole-4-sulfonic acid {2-[5-(1-benzyl-2-dimethylamino-ethyl)-2-fluoro-phenoxy]-ethyl}-amide]
